Measurements reported in patent US20190134069A1, “USE OF THYROID BETA-AGONISTS” (priority 2016, published 2019).

How the values were obtained:
[1] = tested on: X-ALD fibroblast cell lines; experiment: Cell health (proliferation, morphology) of X-ALD fibroblasts incubated with compounds; format: cell-based, Human; details: for cell survival (toxicity): 100 μM, both X-ALD cell lines, within 24 hours; for cell health judged by proliferation and morphology: after 72 hours
Experimental: (§1) Human skin fibroblasts were obtained from X-ALD patients through the Neurology Outpatient Clinic of the Academic Medical Center. Written informed consent was received from each patient. X-ALD diagnosis was confirmed by VLCFA and ABCD1 mutation analysis. Control fibroblasts were obtained from male anonymous volunteers with written informed consent. Fibroblasts were cultured in Dulbecco's modified Eagle's medium (DMEM) with L-glutamine and 4.5 g/L glucose, supplemented with 10% fetal calf serum, 2.5 mM HEPES, 100 U/ml penicillin and 100 U/ml streptomycin. Cells were cultured at 37° C. in a humidified 5% CO2 atmosphere. All fibroblast cell lines used were tested routinely for mycoplasma. All tests were negative.
10 mM stock solutions in DMSO were prepared by weighing the amount of compound (1 and 3 and their respective active metabolites, 2 and 4) as indicated in Table 2. Stock solutions were stored at room temperature in the dark. For each incubation, the amount of tissue culture medium needed was calculated and a stock solution of tissue culture medium with the final concentration of the to-be-tested compound was prepared. Tissue culture medium was removed from the cells, cells were washed once with PBS and the tissue culture medium with the compounds was added. If an experiment lasted longer than three days, the tissue culture medium and compounds were refreshed (using a fresh preparation) after three days until the end of the experiment.
Two different X-ALD fibroblast cell lines were incubated in duplicate with four compounds at three dosages as highlighted in Table 3.
4 X-ALD cell lines were incubated with 10 μM of 4 compounds 1, 2, 3, and 4. The effect of treatment on ABCD2 expression was analyzed at day 3 and day 10. For the 10 day incubation, tissue culture medium and compounds were refreshed at day 3 and day 6.

X-ALD cell lines [2] = experiment: D3-C26:0 de novo synthesis from D3-C22:0 in intact cells; format: cell-based, Human; details: 10 day treatment, 5 X-ALD cell lines
Experimental: as §1
The effect of treatment on D3-C26:0 synthesis in intact cells. The effect of certain compounds of the invention on the synthesis of D3-C26:0 from D3-C22:0 was measured in cultured skin fibroblasts from controls and X-ALD patients. Cells were seeded at approximately 40% confluency in T75 flasks in DMEM. The next day, medium was replaced with medium containing 30 μM D3-C22:0 and the assayed compounds at their final concentration. […] Each 72 h, the tissue culture medium and compounds was refreshed. At the end of the experiment cells were harvested and VLCFA analyzed as described (Valianpour et al., Molecular Genetics and Metabolism, 79: 189-196 (2003)).
VLCFA were analyzed by electrospray ionization mass spectrometry (ESI-MS) as described (Valianpour et al., Molecular Genetics and Metabolism, 79: 189-196 (2003)).
5 different X-ALD cell lines were incubated for 6 days with compounds 1, 2, 3, and 4 at 10 μM, 5 mM 4PBA (sodium 4-phenylbutyrate), or 0.1 μM sobetirome. On Day 6, 30 μM D3C22:0 was added to assess the effect of treatment on beta-oxidation and de novo D3C26:0 synthesis. 6 untreated control cells as well as 5 different untreated X-ALD cells were included to allow assessment of the treatment effect. The total set consisted of 41 experiments

ABCD1−/− mice [3] = experiment: Whole blood VLCFA-LPC levels in in vivo model of X-ALD; details: for Mean blood C26:0-LPC level: once daily IP
Experimental: (§2) Male ABCD1−/− mice were developed using the Taconic 129SvEv background strain. Animals were housed 3-4/cage under a 12-hour lighting cycle (7 AM-7 PM light) and controlled temperature (22° C.) in the rodent facility. They were fed standard mouse chow and had access to drinking water ad libitum. Mice were between 2 and 3 months of age at the beginning of each study.
(§3) Mice were injected once daily intraperitoneal with either drug or vehicle. For blood collection, ˜50 μL of blood was obtained by facial vein puncture using a sterile lancet. Blood was collected in a 1.5 ml microcentrifuge tube containing dried dipotassium EDTA and mixed by gentle inversion at least ten times before storing at −20° C. Blood was obtained in this manner following two, four, and six weeks of treatment. Following blood collection at six weeks, animals were sacrificed by cervical dislocation. Additional blood for preparation of plasma was obtained via cardiac puncture, and blood placed in Microtainer tubes. Brain, spinal cord, adrenal glands, testis, and liver were excised and snap frozen in liquid nitrogen for future analyses.

ABCD1−/− mice [4] = experiment: Plasma VLCFA-LPC levels in in vivo model of X-ALD
Experimental: as §2, §3
During the second cohort study, blood was obtained as described in the Methods section. At the six week time point sufficient blood was collected to permit plasma VLCFA analyses at weeks two, four and six. Plasma is considered by many to be a more reliable measurement of VLCFA levels, because of reduced analytical interference from other analytes, as well as reduced variability of the measurements.

X-ALD cell lines [5] = experiment: D3-C22:0 (VLCFA) beta-oxidation in intact cells; format: cell-based, Human; details: 10 day treatment, 5 X-ALD cell lines
Experimental: as §1
Peroxisomal beta-oxidation activity was measured essentially as described by incubating cells with 30 μM deuterium-labeled C22:0 (D3-C22:0) (Kemp et al., Clinical Chemistry 50: 1824-1826 (2004)). Cells were seeded at approximately 40% confluency in T75 flasks in DMEM. […] At the end of the experiment cells were harvested and VLCFA analyzed as described (Valianpour et al., Molecular Genetics and Metabolism, 79: 189-196 (2003)).
VLCFA were analyzed by electrospray ionization mass spectrometry (ESI-MS) as described (Valianpour et al., Molecular Genetics and Metabolism, 79: 189-196 (2003)). […]

[6] = second cohort, week 6, p<0.0001

SMILES: Cc1cc(OC[P@@]2(=O)OCC[C@@H](c3cccc(Cl)c3)O2)cc(C)c1Cc1ccc(O)c(C(C)C)c1 [Compound 1]
- cell survival (toxicity) [1]: dead
- cell health judged by proliferation and morphology ([1]; 0.1 or 10 μM): looked healthy
- reduction in D3C26:0 de novo synthesis (X-ALD cell lines [2]; 10 μM): ~40%

SMILES: Cc1cc(OCP(=O)(O)O)cc(C)c1Cc1ccc(O)c(C(C)C)c1 [Compound 2]
- cell health judged by proliferation and morphology ([1]; 0.1, 1 or 10 μM): looked healthy

SMILES: Cc1cc(OCP(=O)(OCOC(=O)C(C)(C)C)OCOC(=O)C(C)(C)C)cc(C)c1Cc1ccc(O)c(Cc2ccccc2)c1 [Compound 3]
- reduction in whole blood C26:0-LPC levels relative to vehicle controls (ABCD1−/− mice [3]; initial cohort, after six week treatment, p<0.0001): 40%
- Mean blood C26:0-LPC level (ABCD1−/− mice [3]; initial cohort, week 2): 0.262 µM
- Mean blood C26:0-LPC level (ABCD1−/− mice [3]; initial cohort, week 4): 0.276 µM
- Mean blood C26:0-LPC level (ABCD1−/− mice [3]; initial cohort, week 6): 0.356 µM
- Difference in Mean Change from Baseline, blood C26:0-LPC (ABCD1−/− mice [3]; initial cohort, week 2): -0.052 µM
- % Difference versus Vehicle, blood C26:0-LPC (ABCD1−/− mice [3]; initial cohort, week 2, p NS): 0%
- Difference in Mean Change from Baseline, blood C26:0-LPC (ABCD1−/− mice [3]; initial cohort, week 4): -0.081 µM
- % Difference versus Vehicle, blood C26:0-LPC (ABCD1−/− mice [3]; initial cohort, week 4, p NS): −11%
- Difference in Mean Change from Baseline, blood C26:0-LPC (ABCD1−/− mice [3]; initial cohort, week 6): -0.188 µM
- % Difference versus Vehicle, blood C26:0-LPC (ABCD1−/− mice [3]; initial cohort, week 6, p<0.0001): −40%
- reduction in whole blood C26:0-LPC levels (change from baseline) (ABCD1−/− mice [3]; second cohort, daily IP, six weeks of treatment, FIG. 8): approximately 0.11 μM
- Least Squares Mean Change from Baseline Whole Blood C26:0-LPC (ABCD1−/− mice [3]; second cohort, week 2, p NS versus vehicle): -0.021 µM
- Least Squares Mean Change from Baseline Whole Blood C26:0-LPC (ABCD1−/− mice [3]; second cohort, week 4, p<0.01 versus vehicle): -0.096 µM
- Least Squares Mean Change from Baseline Whole Blood C26:0-LPC (ABCD1−/− mice [3]; second cohort, week 6, p<0.005 versus vehicle): -0.12 µM
- reduction in C26:0-LPC relative to vehicle-treated animals (ABCD1−/− mice [3]; second cohort, whole blood, six weeks, p<0.005): 52%
- C20:0-, C22:0-, and C24:0-LPC levels (ABCD1−/− mice [4]; after six weeks of treatment): significant reductions
- Mean plasma C20:0-LPC level (ABCD1−/− mice [4]; second cohort, week 6): 0.76 µM
- Mean plasma C22:0-LPC level (ABCD1−/− mice [4]; second cohort, week 6): 0.20 µM
- Mean plasma C24:0-LPC level (ABCD1−/− mice [4]; second cohort, week 6): 1.14 µM
- Mean plasma C26:0-LPC level (ABCD1−/− mice [4]; second cohort, week 6): 0.20 µM
- % Difference vs. Vehicle, plasma C20:0-LPC (ABCD1−/− mice [4]; [6]): −54%
- % Difference vs. Vehicle, plasma C22:0-LPC (ABCD1−/− mice [4]; [6]): −43%
- % Difference vs. Vehicle, plasma C26:0-LPC (ABCD1−/− mice [4]; [6]): −29%
- % Difference vs. Vehicle, plasma C24:0-LPC (ABCD1−/− mice [4]; second cohort, week 6, p<0.005): −21%
- cell survival (toxicity) [1]: dead
- cell health judged by proliferation and morphology ([1]; 0.1 or 10 μM): looked healthy

SMILES: O=C([O-])CCCc1ccccc1.[Na+] [Compound 4PBA, sodium 4-phenylbutyrate]
- VLCFA beta-oxidation restored (X-ALD cell lines [5]; 5 mM): ~50 % of controls
- VLCFA (D3C26:0) de novo synthesis (X-ALD cell lines [2]; 5 mM): near normal levels

SMILES: Cc1cc(OCP(=O)(O)O)cc(C)c1Cc1ccc(O)c(Cc2ccccc2)c1 [Compound 4]
- cell health judged by proliferation and morphology ([1]; 0.1, 1 or 10 μM): looked healthy

SMILES: Cc1cc(OCC(=O)O)cc(C)c1Cc1ccc(O)c(C(C)C)c1 [sobetirome]
- effect on VLCFA beta-oxidation (X-ALD cell lines [5]; 0.1 μM): did not show any beneficial effect
- effect on VLCFA de novo synthesis (X-ALD cell lines [2]; 0.1 μM): did not show any beneficial effect
